Data reported in BindingDB's records for doi:10.1016/j.bmcl.2009.01.089 (Gsk, 2009).

Molecular target: T1, Gag-Pol polyprotein [1148-1435] (Human immunodeficiency virus 1, UniProt P04585)
T1 construct: 1148-1435
Test: HIV Integrase Strand Transfer Scintillation Proximity Assay (SPA)
Experimental: Purified recombinant integrase was first combined in a complex with biotinylated donor DNA- streptavidin-coated SPA beads. The complex was preincubated with the test compound, and strand transfer was initiated with a radiolabeled target DNA substrate. After incubation, the incorporated radioactivity was read in a Wallac MicroBeta scintillation plate reader using a counting protocol that corrected for optical cross talk between wells.

NC(=O)c1nc(-c2nnc(Cc3ccc(F)cc3)o2)c(O)c2ncccc12 [7-{5-[(4-fluorophenyl)methyl]-1,3,4-oxadiazol-2-yl}-8-hydroxy-1,6-naphthyridine-5-carboxamide]
IC50: 100 nM

Cc1ccc(S(=O)(=O)Nc2nc(-c3nnc(Cc4ccc(F)cc4)o3)c(O)c3ncccc23)cc1 [N-(7-{5-[(4-fluorophenyl)methyl]-1,3,4-oxadiazol-2-yl}-8-hydroxy-1,6-naphthyridin-5-yl)-4-methylbenzene-1-sulfonamide]
IC50 (pH 7.2, 37 °C): 42 nM
